From PMC6934184, “Selective DNA-PKcs inhibition extends the therapeutic index of localized radiotherapy and chemotherapy” (The Journal of Clinical Investigation, 2019)

Molecular target: T1, DYRK1B (Homo sapiens, UniProt Q9Y463)
T1 construct: purchased Thermo Fisher Scientific (Life Technologies) SelectScreen
Test: SelectScreen Z'LYTE
Assay type: biochemical
Outline: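 NU5455 was profiled across the SelectScreen Broad panel of kinase activity and binding assays. Z'LYTE reactions such as CSF1R ran at apparent Km ATP, while the Adapta CAMK1 assay used ATP listed as 10. Values are given as percent.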

T1 sequence (Q9Y463 whole entry): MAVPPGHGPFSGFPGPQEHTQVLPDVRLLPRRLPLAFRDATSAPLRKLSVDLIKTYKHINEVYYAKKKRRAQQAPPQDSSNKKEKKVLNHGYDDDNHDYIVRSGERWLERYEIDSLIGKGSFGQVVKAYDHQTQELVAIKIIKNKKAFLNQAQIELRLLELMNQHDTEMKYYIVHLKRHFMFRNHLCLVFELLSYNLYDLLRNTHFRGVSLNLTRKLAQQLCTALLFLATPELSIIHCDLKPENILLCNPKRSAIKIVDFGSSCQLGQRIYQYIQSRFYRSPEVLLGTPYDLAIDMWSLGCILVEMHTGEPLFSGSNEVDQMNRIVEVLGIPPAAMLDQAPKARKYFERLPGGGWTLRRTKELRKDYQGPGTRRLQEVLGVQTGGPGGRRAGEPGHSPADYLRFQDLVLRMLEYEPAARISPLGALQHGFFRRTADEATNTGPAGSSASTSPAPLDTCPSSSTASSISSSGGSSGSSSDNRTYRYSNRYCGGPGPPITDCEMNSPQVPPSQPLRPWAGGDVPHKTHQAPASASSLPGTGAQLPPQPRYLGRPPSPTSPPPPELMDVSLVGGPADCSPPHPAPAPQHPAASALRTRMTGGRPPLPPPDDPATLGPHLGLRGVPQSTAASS

`CN(C(=O)CN1CCOCC1)c1ccc2sc3c(-c4cccc5c(=O)cc(N6CC7CCC(C6)O7)oc45)cccc3c2c1` [NU5455] was tested, and the inhibition at 1 µM was -1.8%.
